Results as given in PubChem BioAssay (NCI).
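Five compound concentrations were applied to cells in 96-well plates for 48 hours; endpoints were derived by simple linear interpolation of the resulting dose-response curve. GI50 is the concentration that inhibits growth by half. TGI denotes the concentration required for complete inhibition of growth.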

What was measured:
Assay in all cases: growth of human tumour cells (NCI), 48 h
786-0 renal = tested on: 786-0 renal
A498 renal = tested on: A498 renal
A549 NSCLC = tested on: A549 NSCLC
ACHN renal = tested on: ACHN renal
BT-549 breast = tested on: BT-549 breast
CAKI-1 renal = tested on: CAKI-1 renal
CCRF-CEM leukemia = tested on: CCRF-CEM leukemia
COLO 205 colon = tested on: COLO 205 colon
DU-145 prostate = tested on: DU-145 prostate
HCC-2998 colon = tested on: HCC-2998 colon
HCT-116 colon = tested on: HCT-116 colon
HCT-15 colon = tested on: HCT-15 colon
HL-60(TB) leukemia = tested on: HL-60(TB) leukemia
HOP-62 NSCLC = tested on: HOP-62 NSCLC
HOP-92 NSCLC = tested on: HOP-92 NSCLC
HS 578T breast = tested on: HS 578T breast
HT29 colon = tested on: HT29 colon
IGROV1 ovarian = tested on: IGROV1 ovarian
K-562 leukemia = tested on: K-562 leukemia
KM12 colon = tested on: KM12 colon
LOX IMVI melanoma = tested on: LOX IMVI melanoma
M14 melanoma = tested on: M14 melanoma
MALME-3M melanoma = tested on: MALME-3M melanoma
MCF7 breast = tested on: MCF7 breast
MDA-MB-231 breast = tested on: MDA-MB-231 breast
MDA-MB-435 = tested on: MDA-MB-435
MOLT-4 leukemia = tested on: MOLT-4 leukemia
NCI-H226 lung = tested on: NCI-H226 lung
NCI-H23 lung = tested on: NCI-H23 lung
NCI-H460 lung = tested on: NCI-H460 lung
NCI-H522 lung = tested on: NCI-H522 lung
NCI/ADR-RES ovarian = tested on: NCI/ADR-RES ovarian
OVCAR-3 ovarian = tested on: OVCAR-3 ovarian
OVCAR-4 ovarian = tested on: OVCAR-4 ovarian
OVCAR-5 ovarian = tested on: OVCAR-5 ovarian
OVCAR-8 ovarian = tested on: OVCAR-8 ovarian
PC-3 prostate = tested on: PC-3 prostate
RPMI-8226 leukemia = tested on: RPMI-8226 leukemia
RXF 393 renal = tested on: RXF 393 renal
SF-268 CNS = tested on: SF-268 CNS
SF-539 CNS = tested on: SF-539 CNS
SK-MEL-2 melanoma = tested on: SK-MEL-2 melanoma
SK-MEL-28 melanoma = tested on: SK-MEL-28 melanoma
SK-MEL-5 melanoma = tested on: SK-MEL-5 melanoma
SK-OV-3 ovarian = tested on: SK-OV-3 ovarian
SN12C renal = tested on: SN12C renal
SNB-19 CNS = tested on: SNB-19 CNS
SR leukemia = tested on: SR leukemia
SW-620 colon = tested on: SW-620 colon
T-47D breast = tested on: T-47D breast
TK-10 renal = tested on: TK-10 renal
U251 CNS = tested on: U251 CNS
UACC-257 melanoma = tested on: UACC-257 melanoma
UACC-62 melanoma = tested on: UACC-62 melanoma
UO-31 renal = tested on: UO-31 renal

In the case of COc1ccc(C(=O)/C=C/c2ccc(OCc3ccccc3)c(OC)c2)cc1OC, the GI50 (786-0 renal) is reported as 5.36 µM, the TGI (786-0 renal) is reported as > 100 µM and the GI50 (A498 renal) is reported as 3.24 µM. It also gave a TGI (A498 renal) of 25.3 µM, a GI50 (A549 NSCLC) of 3.05 µM and a TGI (A549 NSCLC) of 29.6 µM. For the same compound, the GI50 (ACHN renal) was 4.31 µM, the TGI (ACHN renal) was > 100 µM and the GI50 (BT-549 breast) was 2790 nM. For the same compound, the TGI (BT-549 breast) was 8.11 µM, the GI50 (CAKI-1 renal) was 4.07 µM and the TGI (CAKI-1 renal) was > 100 µM. The GI50 (CCRF-CEM leukemia) was 3.04 µM, the TGI (CCRF-CEM leukemia) was 71.2 µM and the GI50 (COLO 205 colon) was 3.53 µM. For the same compound, the TGI (COLO 205 colon) was 22.6 µM, the GI50 (DU-145 prostate) was 2760 nM and the TGI (DU-145 prostate) was 8.1 µM. For the same compound, the GI50 (HCC-2998 colon) was 3.22 µM, the TGI (HCC-2998 colon) was 28 µM and the GI50 (HCT-116 colon) was 3.19 µM. The TGI (HCT-116 colon) was > 100 µM, the GI50 (HCT-15 colon) was 2780 nM and the TGI (HCT-15 colon) was > 100 µM. For the same compound, the GI50 (HL-60(TB) leukemia) was 3.67 µM, the TGI (HL-60(TB) leukemia) was 32.5 µM and the GI50 (HOP-62 NSCLC) was 3.67 µM. The TGI (HOP-62 NSCLC) was > 100 µM, the GI50 (HOP-92 NSCLC) was 1400 nM and the TGI (HOP-92 NSCLC) was 5.81 µM. The GI50 (HS 578T breast) was 2800 nM, the TGI (HS 578T breast) was 71.4 µM and the GI50 (HT29 colon) was 3.19 µM. The TGI (HT29 colon) was 89.7 µM, the GI50 (IGROV1 ovarian) was 5.04 µM and the TGI (IGROV1 ovarian) was > 100 µM. For the same compound, the GI50 (K-562 leukemia) was 3.4 µM, the TGI (K-562 leukemia) was > 100 µM and the GI50 (KM12 colon) was 3.48 µM. The TGI (KM12 colon) was > 100 µM, the GI50 (LOX IMVI melanoma) was 2840 nM and the TGI (LOX IMVI melanoma) was 24.1 µM. For the same compound, the GI50 (M14 melanoma) was 5.91 µM, the TGI (M14 melanoma) was > 100 µM and the GI50 (MALME-3M melanoma) was 12.7 µM. For the same compound, the TGI (MALME-3M melanoma) was > 100 µM, the GI50 (MCF7 breast) was 3.02 µM and the TGI (MCF7 breast) was > 100 µM. The GI50 (MDA-MB-231 breast) was 3.7 µM, the TGI (MDA-MB-231 breast) was > 100 µM and the GI50 (MDA-MB-435) was 2970 nM. The TGI (MDA-MB-435) was > 100 µM, the GI50 (MOLT-4 leukemia) was 3.65 µM and the TGI (MOLT-4 leukemia) was > 100 µM. It also gave a GI50 (NCI-H226 lung) of 3.18 µM, a TGI (NCI-H226 lung) of 36.6 µM and a GI50 (NCI-H23 lung) of 4.18 µM. It also gave a TGI (NCI-H23 lung) of 66.7 µM, a GI50 (NCI-H460 lung) of 2930 nM and a TGI (NCI-H460 lung) of 14.4 µM. It also gave a GI50 (NCI-H522 lung) of 2340 nM, a TGI (NCI-H522 lung) of 6.54 µM and a GI50 (NCI/ADR-RES ovarian) of 3.08 µM. For the same compound, the TGI (NCI/ADR-RES ovarian) was > 100 µM, the GI50 (OVCAR-3 ovarian) was 2850 nM and the TGI (OVCAR-3 ovarian) was 8.77 µM. For the same compound, the GI50 (OVCAR-4 ovarian) was 5.01 µM, the TGI (OVCAR-4 ovarian) was > 100 µM and the GI50 (OVCAR-5 ovarian) was 3.55 µM. The TGI (OVCAR-5 ovarian) was > 100 µM, the GI50 (OVCAR-8 ovarian) was 3.1 µM and the TGI (OVCAR-8 ovarian) was > 100 µM. For the same compound, the GI50 (PC-3 prostate) was 5.11 µM, the TGI (PC-3 prostate) was > 100 µM and the GI50 (RPMI-8226 leukemia) was 1880 nM. It also gave a TGI (RPMI-8226 leukemia) of 7.16 µM, a GI50 (RXF 393 renal) of 2320 nM and a TGI (RXF 393 renal) of 5.9 µM. For the same compound, the GI50 (SF-268 CNS) was 3.83 µM, the TGI (SF-268 CNS) was > 100 µM and the GI50 (SF-539 CNS) was 2670 nM. It also gave a TGI (SF-539 CNS) of 7.38 µM, a GI50 (SK-MEL-2 melanoma) of 11 µM and a TGI (SK-MEL-2 melanoma) of 36.3 µM. For the same compound, the GI50 (SK-MEL-28 melanoma) was 17.3 µM, the TGI (SK-MEL-28 melanoma) was > 100 µM and the GI50 (SK-MEL-5 melanoma) was 3.61 µM. The TGI (SK-MEL-5 melanoma) was 17.2 µM, the GI50 (SK-OV-3 ovarian) was 2970 nM and the TGI (SK-OV-3 ovarian) was 12.4 µM. The GI50 (SN12C renal) was 3.97 µM, the TGI (SN12C renal) was > 100 µM and the GI50 (SNB-19 CNS) was 5.31 µM. The TGI (SNB-19 CNS) was > 100 µM, the GI50 (SR leukemia) was 2470 nM and the TGI (SR leukemia) was > 100 µM. The GI50 (SW-620 colon) was 3.05 µM, the TGI (SW-620 colon) was > 100 µM and the GI50 (T-47D breast) was 4.33 µM. For the same compound, the TGI (T-47D breast) was > 100 µM, the GI50 (TK-10 renal) was 4.32 µM and the TGI (TK-10 renal) was 43.8 µM. The GI50 (U251 CNS) was 3.51 µM, the TGI (U251 CNS) was > 100 µM and the GI50 (UACC-257 melanoma) was 6.25 µM. For the same compound, the TGI (UACC-257 melanoma) was > 100 µM, the GI50 (UACC-62 melanoma) was 4.01 µM and the TGI (UACC-62 melanoma) was > 100 µM. For the same compound, the GI50 (UO-31 renal) was 4.16 µM and the TGI (UO-31 renal) was > 100 µM.
